Laboratory results: patent US20260053932A1, “COMPOUNDS AND METHODS FOR THE TARGETED DEGRADATION OF ANDROGEN RECEPTOR AND ASSOCIATED METHODS OF USE” (Arvinas Operations, Inc., priority 2020, published 2026)

Test system: androgen receptor (AR) in LNCaP and/or VCaP cells
Experiment: Androgen Receptor ELISA assay (AR degradation)
Type: cell-based
Conditions: degradation of AR ELISA in LNCaP and/or VCaP cells; Table 2C; read-out: DC50 Code*
Method in brief: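 VCaP cells grown ≥3 days, then treated 5 h with compound in media containing 1 nM R1881 (10× stock). Cells lysed and AR quantified by sandwich ELISA (mouse AR detection Ab, HRP anti-mouse, TMB). DC50 and Dmax derived from AR degradation.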

SMILES | DC50
CC(C)N(CC1CCN(c2cnc(C(=O)N[C@H]3C(C)(C)[C@H](Oc4ccc(C#N)c(Cl)c4)C3(C)C)cn2)CC1)[C@H]1C[C@H](Oc2ccc3c(c2)C2(CC2)N(C2CCC(=O)NC2=O)C3=O)C1 (some centres unmarked) [compound 138, N-((1r,3r)-3-(3-chloro-4-cyanophenoxy)-2,2,4,4-tetramethylcyclobutyl)-5-(4-((((1r,3r)-3-((2′-(2,6-dioxopiperidin-3-yl)-3′-oxospiro[cyclopropane-1,1′-isoindolin]-6′-yl)oxy)cyclobutyl) (isopropyl)amino)methyl)piperidin-1-yl)pyrazine-2-carboxamide] | > 100 nM
CC1(C)[C@H](NC(=O)c2ccc(N3CCC(CN4CCN(c5ccc6c(c5)C5(CC5)N(C5CCC(=O)NC5=O)C6=O)CC4)CC3)cc2)C(C)(C)[C@H]1Oc1ccc(C#N)c(Cl)c1 (some centres unmarked) [compound 139, N-((1r,3r)-3-(3-chloro-4-cyanophenoxy)-2,2,4,4-tetramethylcyclobutyl)-4-(4-((4-(2′-(2,6-dioxopiperidin-3-yl)-3′-oxospiro[cyclopropane-1,1′-isoindolin]-6′-yl)piperazin-1-yl)methyl)piperidin-1-yl)benzamide] | > 100 nM
CC1(C)[C@H](NC(=O)c2ccn([C@H]3CC[C@H](CCCOc4ccc5c(c4)C(=O)N(C4CCC(=O)NC4=O)C5=O)CC3)n2)C(C)(C)[C@H]1Oc1ccc(C#N)c(Cl)c1 (stereo partly drawn) [compound 140, N-((1r,3R)-3-(3-chloro-4-cyanophenoxy)-2,2,4,4-tetramethylcyclobutyl)-1-((1r,4R)-4-(3-((2-(2,6-dioxopiperidin-3-yl)-1,3-dioxoisoindolin-5-yl)oxy)propyl)cyclohexyl)-1H-pyrazole-3-carboxamide] | > 100 nM
CC(C)N(CC1CCN(c2cnc(C(=O)N[C@H]3C(C)(C)[C@H](Oc4ccc(C#N)c(Cl)c4)C3(C)C)cn2)CC1)[C@H]1C[C@H](Oc2ccc3c(c2)C(=O)N(C2CCC(=O)NC2=O)C32CC2)C1 (some centres unmarked) [compound 141, N-((1r,3r)-3-(3-chloro-4-cyanophenoxy)-2,2,4,4-tetramethylcyclobutyl)-5-(4-((((1r,3r)-3-((2′-(2,6-dioxopiperidin-3-yl)-3′-oxospiro[cyclopropane-1,1′-isoindolin]-5′-yl)oxy)cyclobutyl) (isopropyl)amino)methyl)piperidin-1-yl)pyrazine-2-carboxamide] | > 100 nM
CC1(C)[C@H](NC(=O)c2ccc(N3CCC(CN4CCN(c5ccc6c(c5)C(=O)N(C5CCC(=O)N(O)C5=O)C6=O)CC4)CC3)cc2)C(C)(C)[C@H]1Oc1ccc(C#N)c(Cl)c1 (some centres unmarked) [compound 142, N-((1r,3r)-3-(3-chloro-4-cyanophenoxy)-2,2,4,4-tetramethylcyclobutyl)-4-(4-((4-(2-(1-hydroxy-2,6-dioxopiperidin-3-yl)-1,3-dioxoisoindolin-5-yl)piperazin-1-yl)methyl)piperidin-1-yl)benzamide] | > 100 nM
Cc1cc(O[C@H]2C(C)(C)[C@H](NC(=O)c3cnc(N4CC(CCN5CCC(Oc6ccc7c(c6)C(=O)N(C6CCC(=O)NC6=O)C7=O)CC5)C4)cn3)C2(C)C)cc(C)c1C#N (some centres unmarked) [compound 143, N-((1r,3r)-3-(4-cyano-3,5-dimethylphenoxy)-2,2,4,4-tetramethylcyclobutyl)-5-(3-(2-(4-((2-(2,6-dioxopiperidin-3-yl)-1,3-dioxoisoindolin-5-yl)oxy)piperidin-1-yl)ethyl)azetidin-1-yl)pyrazine-2-carboxamide] | > 100 nM
Cc1cc(O[C@H]2C(C)(C)[C@H](NC(=O)c3ccc(N4CCC(CN(C)[C@H]5CC[C@H](Oc6ccc7c(c6)C(=O)N(C6CCC(=O)NC6=O)C7=O)C5)CC4)cc3)C2(C)C)cc(C)c1C#N (stereo partly drawn) [compound 154, N-((1r,3S)-3-(4-cyano-3,5-dimethylphenoxy)-2,2,4,4-tetramethylcyclobutyl)-4-(4-((((1S,3S)-3-((2-(2,6-dioxopiperidin-3-yl)-1,3-dioxoisoindolin-5-yl)oxy)cyclopentyl) (methyl)amino)methyl)piperidin-1-yl)benzamide] | < 1 nM
COCCOCCOCCOCCOCCN(CC1CCN(c2ncc(C(=O)N[C@H]3C(C)(C)[C@H](Oc4cc(C)c(C#N)c(C)c4)C3(C)C)cn2)CC1)[C@H]1C[C@H](Oc2ccc3c(c2)C(=O)N(C2CCC(=O)NC2=O)C3=O)C1 (some centres unmarked) [compound 155, N-((1r,3r)-3-(4-cyano-3,5-dimethylphenoxy)-2,2,4,4-tetramethylcyclobutyl)-2-(4-(2-((1r,3r)-3-((2-(2,6-dioxopiperidin-3-yl)-1,3-dioxoisoindolin-5-yl)oxy)cyclobutyl)-5,8,11,14,17-pentaoxa-2-azaoctadecyl)piperidin-1-yl)pyrimidine-5-carboxamide] | < 1 nM
CC1(C)[C@H](NC(=O)c2ccc(N3CCC(CN4CCN(c5ccc6c(c5)C(=O)N([C@]5(C#N)CCC(=O)NC5=O)C6)CC4)CC3)cc2)C(C)(C)[C@H]1Oc1ccc(C#N)c(Cl)c1 [compound 156, N-((1r,3r)-3-(3-chloro-4-cyanophenoxy)-2,2,4,4-tetramethylcyclobutyl)-4-(4-((4-(2-((S)-3-cyano-2,6-dioxopiperidin-3-yl)-3-oxoisoindolin-5-yl)piperazin-1-yl)methyl)piperidin-1-yl)benzamide] | > 100 nM
COc1cc(O[C@H]2C[C@H](N(CC3CC4(C3)CN(c3cnc(C(=O)N[C@H]5C(C)(C)[C@H](Oc6cc(C)c(C#N)c(C)c6)C5(C)C)cn3)C4)C(C)C)C2)cc2c1C(=O)N(C1CCC(=O)NC1=O)C2=O (some centres unmarked) [compound 158, N-((1r,3r)-3-(4-cyano-3,5-dimethylphenoxy)-2,2,4,4-tetramethylcyclobutyl)-5-(6-((((1r,3r)-3-((2-(2,6-dioxopiperidin-3-yl)-7-methoxy-1,3-dioxoisoindolin-5-yl)oxy)cyclobutyl) (isopropyl)amino)methyl)-2-azaspiro[3.3]heptan-2-yl)pyrazine-2-carboxamide] | < 1 nM
Cc1cc(O[C@H]2C(C)(C)[C@H](NC(=O)c3ccc(N4CCC(CN(C(C)C)[C@H]5C[C@H](Oc6ccc7c(c6)C(=O)N([C@@H]6CCC(=O)NC6=O)C7=O)C5)CC4)cc3)C2(C)C)cc(C)c1C#N [compound 160, N-((1r,3r)-3-(4-cyano-3,5-dimethylphenoxy)-2,2,4,4-tetramethylcyclobutyl)-4-(4-((((1R,3r)-3-((2-((R)-2,6-dioxopiperidin-3-yl)-1,3-dioxoisoindolin-5-yl)oxy)cyclobutyl) (isopropyl)amino)methyl)piperidin-1-yl)benzamide] | < 1 nM

More lines, now with the values ahead:

DC50 | SMILES
< 1 nM | COCCOCCOCCN(CC1CCN(c2ncc(C(=O)N[C@H]3C(C)(C)[C@H](Oc4cc(C)c(C#N)c(C)c4)C3(C)C)cn2)CC1)[C@H]1C[C@H](Oc2ccc3c(c2)C(=O)N(C2CCC(=O)NC2=O)C3=O)C1 (some centres unmarked) [compound 144, N-((1r,3r)-3-(4-cyano-3,5-dimethylphenoxy)-2,2,4,4-tetramethylcyclobutyl)-2-(4-(2-((1r,3r)-3-((2-(2,6-dioxopiperidin-3-yl)-1,3-dioxoisoindolin-5-yl)oxy)cyclobutyl)-5,8,11-trioxa-2-azadodecyl)piperidin-1-yl)pyrimidine-5-carboxamide]
< 1 nM | COCCOCCOCCOCCN(CC1CCN(c2ncc(C(=O)N[C@H]3C(C)(C)[C@H](Oc4cc(C)c(C#N)c(C)c4)C3(C)C)cn2)CC1)[C@H]1C[C@H](Oc2ccc3c(c2)C(=O)N(C2CCC(=O)NC2=O)C3=O)C1 (some centres unmarked) [compound 145, N-((1r,3r)-3-(4-cyano-3,5-dimethylphenoxy)-2,2,4,4-tetramethylcyclobutyl)-2-(4-(2-((1r,3r)-3-((2-(2,6-dioxopiperidin-3-yl)-1,3-dioxoisoindolin-5-yl)oxy)cyclobutyl)-5,8,11,14-tetraoxa-2-azapentadecyl)piperidin-1-yl)pyrimidine-5-carboxamide]
< 1 nM | CCN(CC1CCN(c2ccc(C(=O)N[C@H]3C(C)(C)[C@H](Oc4ccc(C#N)c(OC)c4)C3(C)C)cc2)CC1)[C@H]1C[C@H](Oc2ccc3c(c2)C(=O)N(C2CCC(=O)NC2=O)C3=O)C1 (some centres unmarked) [compound 147, N-((1r,3r)-3-(4-cyano-3-methoxyphenoxy)-2,2,4,4-tetramethylcyclobutyl)-4-(4-((((1r,3r)-3-((2-(2,6-dioxopiperidin-3-yl)-1,3-dioxoisoindolin-5-yl)oxy)cyclobutyl)(ethyl)amino)methyl)piperidin-1-yl)benzamide]
< 1 nM | Cc1cc(O[C@H]2C(C)(C)[C@H](NC(=O)c3ccc(CN4CCOC[C@@H]4CN(C)[C@H]4C[C@H](Oc5ccc6c(c5)C(=O)N(C5CCC(=O)NC5=O)C6=O)C4)cc3)C2(C)C)cc(C)c1C#N (stereo partly drawn) [compound 148, N-((1r,3R)-3-(4-cyano-3,5-dimethylphenoxy)-2,2,4,4-tetramethylcyclobutyl)-4-(((3R)-3-((((1r,3R)-3-((2-(2,6-dioxopiperidin-3-yl)-1,3-dioxoisoindolin-5-yl)oxy)cyclobutyl) (methyl)amino)methyl)morpholino)methyl) benzamide]
< 1 nM | Cc1cc(O[C@H]2C(C)(C)[C@H](NC(=O)c3ccc(CN4CCOC[C@@H]4CN(C)[C@H]4C[C@H](Oc5ccc6c(c5)C(=O)N(C5CCC(=O)NC5=O)C6=O)C4)cc3)C2(C)C)cc(C)c1C#N (stereo partly drawn) [compound 151, N-((1r,3S)-3-(4-cyano-3,5-dimethylphenoxy)-2,2,4,4-tetramethylcyclobutyl)-4-(((3S)-3-((((1r,3S)-3-((2-(2,6-dioxopiperidin-3-yl)-1,3-dioxoisoindolin-5-yl)oxy)cyclobutyl) (methyl)amino)methyl)morpholino)methyl) benzamide]
< 1 nM | Cc1cc(O[C@H]2C(C)(C)[C@H](NC(=O)c3ccc(N4CCC(CN(C)[C@H]5CC[C@@H](Oc6ccc7c(c6)C(=O)N(C6CCC(=O)NC6=O)C7=O)C5)CC4)cc3)C2(C)C)cc(C)c1C#N (stereo partly drawn) [compound 152, N-((1r,3S)-3-(4-cyano-3,5-dimethylphenoxy)-2,2,4,4-tetramethylcyclobutyl)-4-(4-((((1S,3R)-3-((2-(2,6-dioxopiperidin-3-yl)-1,3-dioxoisoindolin-5-yl)oxy)cyclopentyl) (methyl)amino)methyl)piperidin-1-yl)benzamide]
